How the values were obtained:
CHO = assay: Cytotoxicity against CHO cells by MTT assay; assay type: cell-based; settings: Cricetulus griseus
Plasmodium falciparum [1] = assay: Antiplasmodial activity against chloroquine-sensitive Plasmodium falciparum NF54 assessed as reduction in parasite growth by parasite lactate dehydrogenase assay; assay type: functional, organism-based
[2] = Selectivity index, ratio of IC50 for CHO cells to IC50 for chloroquine-sensitive Plasmodium falciparum NF54; assay type: toxicity, cell-based; settings: hamster, read-out: Ratio IC50
Plasmodium falciparum [3] = assay: Antiplasmodial activity against Plasmodium falciparum after 48 hrs by NIH quantitative high throughput screen assay; assay type: functional, organism-based

Compound | IC50 (CHO) [µM] | IC50 (Plasmodium falciparum [1]) | selectivity ratio [2] | IC50 (Plasmodium falciparum [3]) [µM]
CN1C[C@H](CNC(=O)c2cnccn2)C[C@@H]2c3cccc4c3c(cn4C)C[C@H]21 | 164 | 8.4 µM | 20 | 
CN1C[C@H](CNC(=O)C2CCCCN2)C[C@@H]2c3cccc4c3c(cn4C)C[C@H]21 (stereo not given in full) | 16.6 | 1.23 µM | 13 | 
CN1C[C@H](CNC(=O)OCc2ccccc2)C[C@@H]2c3cccc4c3c(cn4C)C[C@H]21 [METERGOLINE] | 16.6 | 3.7 µM | 4.5 | 7.4
CN1C[C@H](CNC(=O)c2ccc(Cl)c(Cl)c2)C[C@@H]2c3cccc4c3c(cn4C)C[C@H]21 | 3.8 | 4.8 µM | 1 | 
CN1C[C@H](CNC(=O)c2ccc([N+](=O)[O-])cc2)C[C@@H]2c3cccc4c3c(cn4C)C[C@H]21 | 5 | 0.5 µM | 11 | 
CN1C[C@H](CNC(=O)c2ccc(OC(F)(F)F)cc2)C[C@@H]2c3cccc4c3c(cn4C)C[C@H]21 | 12.8 | 4.2 µM | 3 | 
CN1C[C@H](CNC(=O)c2ccncc2)C[C@@H]2c3cccc4c3c(cn4C)C[C@H]21 | 161 | 17.5 µM | 9 | 
CN1C[C@H](CNC(=O)c2ccc(S(C)(=O)=O)cc2)C[C@@H]2c3cccc4c3c(cn4C)C[C@H]21 | 222 | 14.2 µM | 16 | 
CC(=O)NC[C@@H]1C[C@@H]2c3cccc4c3c(cn4C)C[C@H]2N(C)C1 |  | 199 µM |  | 
CN1C[C@H](CNC(=O)C2CCCC2)C[C@@H]2c3cccc4c3c(cn4C)C[C@H]21 | 144 | 4.3 µM | 33 | 
CN1C[C@H](CNC(=O)c2ccccc2)C[C@@H]2c3cccc4c3c(cn4C)C[C@H]21 | 27 | 24.4 µM | 1 | 
CCCCCC(=O)NC[C@@H]1C[C@@H]2c3cccc4c3c(cn4C)C[C@H]2N(C)C1 |  | 28.6 µM |  | 
CC[C@H]1CN2CCc3cc(OC)c(OC)cc3[C@@H]2C[C@@H]1C[C@H]1NCCc2cc(OC)c(OC)cc21 [EMETINE] | 0.05 |  |  | 
C[C@H]1[C@H](OC(=O)CCC(=O)O)O[C@@H]2O[C@@]3(C)CC[C@H]4[C@H](C)CC[C@@H]1[C@@]24OO3 [ARTESUNATE] |  | 2.8 ng/mL |  | 
CCC(=O)NC[C@@H]1C[C@@H]2c3cccc4c3c(cn4C)C[C@H]2N(C)C1 |  | 40.3 µM |  | 
COc1ccc(C(=O)NC[C@@H]2C[C@@H]3c4cccc5c4c(cn5C)C[C@H]3N(C)C2)cc1 | 7.4 | 8.4 µM | 1 | 
CN1C[C@H](CNC(=O)c2ccc(Cl)cc2)C[C@@H]2c3cccc4c3c(cn4C)C[C@H]21 | 4.3 | 1.3 µM | 3 | 
CCCCc1ccc(C(=O)NC[C@@H]2C[C@@H]3c4cccc5c4c(cn5C)C[C@H]3N(C)C2)cc1 | 14.5 | 2 µM | 7 | 
CN1C[C@H](CNC(=O)c2ccc(F)cc2)C[C@@H]2c3cccc4c3c(cn4C)C[C@H]21 | 7.3 | 12.5 µM | 0.6 | 
CCCC(=O)NC[C@@H]1C[C@@H]2c3cccc4c3c(cn4C)C[C@H]2N(C)C1 |  | 32.1 µM |  | 

Compound | IC50 (CHO) [µM] | IC50 (Plasmodium falciparum [1]) | selectivity ratio [2] | IC50 (Plasmodium falciparum [3]) [µM]
CCCCCCC(=O)NC[C@@H]1C[C@@H]2c3cccc4c3c(cn4C)C[C@H]2N(C)C1 | 8.9 | 9.1 µM | 1 | 
CN1C[C@H](CNC(=O)c2ccc(Cl)cc2Cl)C[C@@H]2c3cccc4c3c(cn4C)C[C@H]21 | 7.5 | 8.3 µM | 1 | 
CN1C[C@H](CNC(=O)c2ccc(I)cc2)C[C@@H]2c3cccc4c3c(cn4C)C[C@H]21 | 5.5 | 3 µM | 2 | 
CCc1ccc(C(=O)NC[C@@H]2C[C@@H]3c4cccc5c4c(cn5C)C[C@H]3N(C)C2)cc1 | 5.6 | 4.3 µM | 1 | 
CN(C)c1ccc(C(=O)NC[C@@H]2C[C@@H]3c4cccc5c4c(cn5C)C[C@H]3N(C)C2)cc1 | 132 | 33.8 µM | 4 | 
CN1C[C@H](CNC(=O)C(C)(C)C)C[C@@H]2c3cccc4c3c(cn4C)C[C@H]21 |  | 89.1 µM |  | 
CN1C[C@H](CNC(=O)c2cccc(Cl)c2)C[C@@H]2c3cccc4c3c(cn4C)C[C@H]21 | 4.7 | 4.9 µM | 1 | 
CCCCCCCCCC(=O)NC[C@@H]1C[C@@H]2c3cccc4c3c(cn4C)C[C@H]2N(C)C1 | 86.6 | 5.2 µM | 17 | 
CCCCCCCC(=O)NC[C@@H]1C[C@@H]2c3cccc4c3c(cn4C)C[C@H]2N(C)C1 | 4.6 | 3.9 µM | 1 | 
CN1C[C@H](CN)C[C@@H]2c3cccc4c3c(cn4C)C[C@H]21 | 26.1 | 3.6 µM | 7 | 
CN1C[C@H](CNC(=O)c2ccccc2Cl)C[C@@H]2c3cccc4c3c(cn4C)C[C@H]21 | 25 | 14.6 µM | 2 | 
CN1C[C@H](CNC(=O)c2ccc(C#N)cc2)C[C@@H]2c3cccc4c3c(cn4C)C[C@H]21 | 104 | 0.6 µM | 188 | 
CCCCC(=O)NC[C@@H]1C[C@@H]2c3cccc4c3c(cn4C)C[C@H]2N(C)C1 | 105 | 18.7 µM | 6 | 
CN1C[C@H](CNC(=O)c2ccncn2)C[C@@H]2c3cccc4c3c(cn4C)C[C@H]21 |  | 27.4 µM |  | 
CSc1ccc(C(=O)NC[C@@H]2C[C@@H]3c4cccc5c4c(cn5C)C[C@H]3N(C)C2)cc1 | 6 | 4.7 µM | 1 | 
CN1C[C@H](CNC(=O)c2ccc(C(F)(F)F)cc2)C[C@@H]2c3cccc4c3c(cn4C)C[C@H]21 | 4.9 | 2.7 µM | 2 | 
CC(=O)c1ccc(C(=O)NC[C@@H]2C[C@@H]3c4cccc5c4c(cn5C)C[C@H]3N(C)C2)cc1 | 152 | 12.3 µM | 12 | 
CN1C[C@H](CNC(=O)c2cccnc2)C[C@@H]2c3cccc4c3c(cn4C)C[C@H]21 | 162 | 17.4 µM | 9 | 
CN1C[C@H](CNC(=O)c2ccccn2)C[C@@H]2c3cccc4c3c(cn4C)C[C@H]21 | 112 | 11.4 µM | 10 | 
CN1C[C@H](CNC(=O)c2ccc(Br)cc2)C[C@@H]2c3cccc4c3c(cn4C)C[C@H]21 | 5.1 | 2.6 µM | 2 | 

— ChEMBL document CHEMBL3132842, “Synthesis of metergoline analogues and their evaluation as antiplasmodial agents” (Medchemcomm, 2014)
